Laboratory results reported in patent US20260242390A1, “TOTAL SYNTHESES OF PORTIMINE A AND ANALOGUES THEREOF AS SMALL MOLECULE MODULATORS OF NMD3” (priority 2023, published 2026).
“Also recorded” adds a separate entry of the source.

Target: T1, NMD3 (Homo sapiens, UniProt Q96D46)
T1 construct: endogenous in cells
T1 sequence (Q96D46 1-503): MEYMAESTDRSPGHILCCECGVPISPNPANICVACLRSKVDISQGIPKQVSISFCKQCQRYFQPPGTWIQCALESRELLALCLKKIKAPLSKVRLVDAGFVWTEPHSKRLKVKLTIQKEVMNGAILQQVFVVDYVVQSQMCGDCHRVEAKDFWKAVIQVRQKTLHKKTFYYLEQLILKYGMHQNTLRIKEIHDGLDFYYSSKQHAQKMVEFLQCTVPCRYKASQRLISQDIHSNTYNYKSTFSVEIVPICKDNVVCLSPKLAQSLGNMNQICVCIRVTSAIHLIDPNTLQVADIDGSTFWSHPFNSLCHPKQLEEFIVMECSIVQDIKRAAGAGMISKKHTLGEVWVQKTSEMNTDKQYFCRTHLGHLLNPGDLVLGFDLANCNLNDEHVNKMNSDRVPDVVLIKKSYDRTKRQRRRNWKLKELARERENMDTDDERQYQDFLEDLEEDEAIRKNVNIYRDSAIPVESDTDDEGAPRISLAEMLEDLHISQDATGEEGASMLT
Experiment: Chemo-precipitation / photoaffinity labeling of NMD3
Assay type: binding
Settings: for competition of PA-DA labeling of endogenous NMD3 / labeling of endogenous NMD3 by probe: Jurkat and HCC1806 cells; for competition of PA-DA labeling of endogenous NMD3: PA-DA 0.5 uM, competitor 5 uM; for labeling of endogenous NMD3 by probe: probe 0.5 uM, UV irradiated
Method: FIG. 4. Validation of NMD3 as target of Portimine A by Chemo-precipitation (ChP). Portimine A mouse pharmacokinetic properties and fast acting in vitro cell-based target engagement properties based on compound wash-out. (A) Pharmacokinetic studies of mouse intraperitoneal (i.p.) and oral (p.o.) administration for portimine (n=3). […] Impact of PA [0.3 or 1 mg/kg intraperitoneally] on MC38 tumor growth in WT mice (n=6). (C) Kaplan-Myer survival curve of WT MC38 tumor-bearing mice (n=6) after treatment with PA as described in (D). Mice were euthanized when tumor area exceeded 2000 mm^3. Statistical analysis was performed using ANOVA analysis followed by multiple comparisons test, * p≤0.05. Treatment condition: Jurkat (60 M per condition); PA-DA/ePA-DA concentration: 0.5 uM, PA or ePA: 5 uM; Incubate with probe with or without competitors (PA, ePA) for 30 min; UV irradiated for 20 min. (0.5 uM PA-DA add a no-UV condition); Standard pulldown & biotin-enrichment and western blot analysis (Elute condition: 2× sample buffer+500 uM biotin, boil for 20 mins); Primary antibody NMD3 (ProteinTech, 1:150), Actin (BioRad, 1:10000).
FIG. 5. […] (I, J) Confirmation of PA-DA engagement of NMD3 in Jurkat and HCC1806 cells. […] Treatment condition: Jurkat (5M per well). Portimine A concentration: 2 nM-1000 nM; In total treat cell for 12 hours.
• 1) Portimine A and its functional analogs show stereo-selective acute toxicity in cancer cells (FIG. 1). […] (B) Structure of portimine related analogs: phenyl-portimine A (Ph-PA, 36) and epi-portimine A (ePA, 38). Structure of fully functionalized portimine A-based epimeric probe pair: portimine A-diazirine-alkyne (PA-DA, 35-2) and epi-portimine A-diazirine-alkyne (ePA-DA, 35-1). (C) Cell viability analysis of portimine A and analogs. Jurkat cells were treated with increasing concentrations of portimine A and analogs for 24 hours. All presented data as mean of biological replicated experiments (n=3). […] Jurkat cells were treated with portimine A or analogs for 12 hours at 10 nM. […] Structurally related negative control ePA and PB are non-toxic in all cell types in the current concentrate range. PBMCs (25k per well), Jurkat (10k per well). […] Cell cycle analysis in Jurkat cells (FIG. 2). Jurkat cells were treated with 10 nM of indicated compounds for 24 hours, and propodium iodide was used to identify different stages of cells by flow cytometry. […] (A) PA and Ph-PA show less toxic to healthy PBMCs compared to Jurkat cells. […] (B) Immunoblot of caspase-3 in Jurkat and PBMCs with indicated conditions. […] (A) Pharmacokinetic studies of mouse intraperitoneal (i.p.) and oral (p.o.) administration for portimine (n=3). […] Impact of PA [0.3 or 1 mg/kg intraperitoneally] on MC38 tumor growth in WT mice (n=6). (C) Kaplan-Myer survival curve of WT MC38 tumor-bearing mice (n=6) after treatment with PA as described in (D). Mice were euthanized when tumor area exceeded 2000 mm^3. Statistical analysis was performed using ANOVA analysis followed by multiple comparisons test, * p≤0.05. Treatment condition: Jurkat (60 M per condition); PA-DA/ePA-DA concentration: 0.5 uM, PA or ePA: 5 uM; Incubate with probe with or without competitors (PA, ePA) for 30 min; UV irradiated for 20 min. (0.5 uM PA-DA add a no-UV condition), Standard pulldown & biotin-enrichment and western blot analysis (Elute condition: 2× sample buffer+500 uM biotin, boil for 20 mins); Primary antibody NMD3 (ProteinTech, 1:150), Actin (BioRad, 1:10000). […] Chemical proteomic profiling with PA-DA in Jurkat cells (A, B, C, G) and HCC1806 cells (D, E, F, H) show NMD3 is the primary target candidate of portimine A. Volcano plot in panels A and D show protein competition in cells treated with active photoaffinity probe PA-DA (500 nM) and DMSO or the active competitor portimine A (PA, […]), dotted lines indicate threshold of fold change <4, p-value>0.05. […] (I, J) Confirmation of PA-DA engagement of NMD3 in Jurkat and HCC1806 cells. […] Treatment condition: Jurkat (5M per well). […]

Structure (SMILES) | competition of PA-DA labeling of endogenous NMD3 | binding to NMD3 (target validation) (endogenous NMD3, Jurkat, pulldown and western blot) | nature of the interaction with NMD3 (no-UV control) | binding to recombinantly overexpressed NMD3 in cells | labeling of endogenous NMD3 by probe
C=CC1=C[C@@H]2[C@@H]3O[C@]4(CC[C@H](O4)C(C)C[C@@H](O)C3=O)CC(O)C3=NCC[C@@]32CC1 (stereo partly shown) [PA, portimine A] | blocked | selectively binds; also recorded: confirmed as a target | non-covalent |  | 
C#CCCC1(CCNC(=O)c2ccc(C3=C[C@@H]4[C@@H]5O[C@]6(CC[C@H](O6)C(C)C[C@@H](O)C5=O)CC(O)C5=NCC[C@@]54CC3)cc2)N=N1 (stereo partly shown) [PA-DA, portimine A-diazirine-alkyne] |  |  |  | not observed | UV-dependent labeling
C=CC1=C[C@@H]2[C@@H]3O[C@]4(CC[C@H](O4)C(C)C[C@@H](O)C3=O)C[C@@H](O)C3=NCC[C@@]32CC1 (stereo partly drawn) [ePA, epi-portimine A] | not |  |  |  | 
C#CCCC1(CCNC(=O)c2ccc(C3=C[C@@H]4[C@@H]5O[C@]6(CC[C@H](O6)C(C)C[C@@H](O)C5=O)C[C@@H](O)C5=NCC[C@@]54CC3)cc2)N=N1 (stereo partly drawn) [ePA-DA, epi-portimine A-diazirine-alkyne] |  |  |  |  | not substantially labeled
